The text below walks through data of ChEMBL document CHEMBL1148524, “Novel and selective alpha(v)beta3 receptor peptide antagonist: design, synthesis, and biological behavior” (J Med Chem, 2006).

The target in the assay is Integrin alpha-V/beta-3 (Homo sapiens, UniProt P05106+P06756). In words: Inhibition of adhesion of K562 cells expressing alphaVbeta3 integrin receptor to vitronectin. It is filed as cell-based.
Chain of Integrin alpha-V/beta-3 (P05106 27-788 limits assumed): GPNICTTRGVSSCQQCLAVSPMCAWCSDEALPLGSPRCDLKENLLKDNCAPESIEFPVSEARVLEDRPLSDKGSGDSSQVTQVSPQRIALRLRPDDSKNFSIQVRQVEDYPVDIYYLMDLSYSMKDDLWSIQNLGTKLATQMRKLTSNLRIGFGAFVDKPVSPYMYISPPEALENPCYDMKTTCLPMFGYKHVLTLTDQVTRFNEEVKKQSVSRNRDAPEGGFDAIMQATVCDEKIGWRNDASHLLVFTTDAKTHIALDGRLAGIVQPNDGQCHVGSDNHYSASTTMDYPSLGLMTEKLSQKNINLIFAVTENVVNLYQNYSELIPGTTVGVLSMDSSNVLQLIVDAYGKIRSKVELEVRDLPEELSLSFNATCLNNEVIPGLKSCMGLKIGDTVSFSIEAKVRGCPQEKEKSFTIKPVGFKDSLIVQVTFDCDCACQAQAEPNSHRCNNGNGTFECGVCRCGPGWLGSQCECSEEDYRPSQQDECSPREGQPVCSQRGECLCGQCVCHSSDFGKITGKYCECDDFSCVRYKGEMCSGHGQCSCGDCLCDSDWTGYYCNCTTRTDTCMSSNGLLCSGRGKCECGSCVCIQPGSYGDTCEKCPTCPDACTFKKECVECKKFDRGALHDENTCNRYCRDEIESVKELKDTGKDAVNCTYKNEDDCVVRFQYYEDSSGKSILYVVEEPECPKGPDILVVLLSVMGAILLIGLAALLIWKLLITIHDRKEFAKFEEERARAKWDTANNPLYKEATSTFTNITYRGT
Chain of Integrin alpha-V/beta-3 (P06756 31-889 limits assumed): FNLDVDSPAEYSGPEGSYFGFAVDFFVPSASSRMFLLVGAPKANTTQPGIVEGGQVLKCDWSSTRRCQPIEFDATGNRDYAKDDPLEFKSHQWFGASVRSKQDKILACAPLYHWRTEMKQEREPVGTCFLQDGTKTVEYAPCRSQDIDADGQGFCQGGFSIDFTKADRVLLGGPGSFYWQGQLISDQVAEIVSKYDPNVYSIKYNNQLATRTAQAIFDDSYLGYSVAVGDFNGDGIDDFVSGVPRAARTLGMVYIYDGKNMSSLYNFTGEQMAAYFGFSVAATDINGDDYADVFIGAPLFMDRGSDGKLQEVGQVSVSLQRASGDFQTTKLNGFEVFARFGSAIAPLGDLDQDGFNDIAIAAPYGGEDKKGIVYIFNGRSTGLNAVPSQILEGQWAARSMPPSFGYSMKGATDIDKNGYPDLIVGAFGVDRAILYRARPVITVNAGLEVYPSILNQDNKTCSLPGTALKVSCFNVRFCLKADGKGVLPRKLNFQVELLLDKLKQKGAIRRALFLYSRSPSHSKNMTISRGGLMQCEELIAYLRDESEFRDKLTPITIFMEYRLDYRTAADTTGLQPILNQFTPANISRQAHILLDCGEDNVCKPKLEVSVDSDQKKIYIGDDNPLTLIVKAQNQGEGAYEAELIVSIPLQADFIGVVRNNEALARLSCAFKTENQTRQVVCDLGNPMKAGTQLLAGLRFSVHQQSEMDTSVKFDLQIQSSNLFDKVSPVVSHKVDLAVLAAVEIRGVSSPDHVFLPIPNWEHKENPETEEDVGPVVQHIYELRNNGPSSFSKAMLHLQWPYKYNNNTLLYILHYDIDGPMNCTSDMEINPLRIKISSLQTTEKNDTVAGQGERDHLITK
Chain of Integrin alpha-V/beta-3 (P06756 891-1048 limits assumed): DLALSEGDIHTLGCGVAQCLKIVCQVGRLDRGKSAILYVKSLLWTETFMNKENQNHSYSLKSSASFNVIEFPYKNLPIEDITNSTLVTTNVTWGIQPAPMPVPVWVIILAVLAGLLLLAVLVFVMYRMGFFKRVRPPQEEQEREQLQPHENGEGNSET

Consider `CSCC[C@H](NC(=O)CC[C@H]1NC(=O)[C@H](CC(=O)O)NC(=O)CNC(=O)[C@H](CCCN=C(N)N)NC(=O)[C@H](CCCCN)NC1=O)C(=O)N[C@@H](CC(=O)O)C(=O)N[C@@H](CC(=O)O)C(=O)N1CCC[C@H]1C(=O)NCC(=O)/N=C(\N)NCCC[C@H](N)C(=O)N[C@@H](CC(N)=O)C(=O)N1CCC[C@H]1C(=O)N[C@@H](Cc1c[nH]cn1)C(=O)N[C@@H](CCCCN)C(=O)NCC(=O)N1CCC[C@H]1C(=O)N[C@@H](C)C(=O)N[C@H](C(=O)O)[C@@H](C)O`, for which it took 880 nM to reach half-maximal inhibition (IC50).
